US20090131302A1, “Transient receptor potential vanilloid 1 and uses thereof” (priority 2007, published 2009)

What was measured:
colon of P10 rats = settings: 0.5% into colon at P10, vs saline
Method: To treat neonatal rats with capsaicin, ten day old rat pups received an infusion of 0.2 mls of 50 mg/ml capsaicin or 0.2 mls vehicle: 10% ethanol, 10% Tween 20, 80% saline or were left unmanipulated. Visceral sensitivity and inflammatory parameters were measured in these rats between 8 and 12 weeks of age. […] After 4 weeks, rats were tested for sensitivity to colorectal distention.
Visceral hypersensitivity was measured by grading the response of rats to colorectal distention as previously described.^11 Briefly, under mild sedation with 1% Brevital (Eli Lily & Co Indianapolis, Ind.) 25 mg/kg i.p.), a flexible balloon (5 cm) constructed from a surgical glove finger attached to a tygon tubing was inserted 8 cm into the descending colon and rectum via the anus and held in place by taping the tubing to the tail. […] Pressure was measured using a sphygmomanometer connected to a pressure transducer. […] Behavioral responses to colorectal distention were measured by visual observation of the abdominal withdrawal reflex by blinded observer and the assignment of an AWR score as follows: 1=Normal behavior without response 2=Contraction of abdominal muscles; 3=Lifting of abdominal wall; 4=Body arching and lifting of pelvic structures. […]
Data is expressed as mean+/−standard error of the mean (SE).

colon = settings: rat, in vivo
Method: Colons were divided into proximal, middle and distal segments; portions of each segment were placed in 10% buffered formalin and portions were frozen in liquid nitrogen. Haematoxilin & Eosin stained parafin sections were scored for inflammation by a pathologist as described.^21 Myeloperoxidase (MPO) assays were performed as described.^22 Protein was measured by the BCA method (Pierce, Rockford, Ill.). Activity was expressed as the change in absorbance/min/mg protein. Cytokine levels were measured in colon extracts using the Biorad Bioplex assay procedure and normalized to protein.
To rule out the possibility that the sensitizing effects of neonatal acetic acid exposure were due to inflammation/injury of the colon, the colons of P10 pups were examined.
To determine whether persistent hypersensitivity achieved in neonatal acetic acid treated rats was due to the development of a chronic colitis in adult, H&E stained sections of the colons of 8 weeks old adult rats were examined for histopathological signs of inflammation, myoloperoxidase (MPO) activity and inflammatory cytokine levels. […] Since mast cells can affect both motility and sensitivity, mast cells in proximal, middle and distal colon were counted.

colon of adult rats = settings: 1 ml of 5% into descending colon at 8 weeks; tested after 4 weeks; 50-80 mm Hg; vs saline
Method: For neonatal sensitization, rats were obtained as litters of 4 days old pups. […] To treat neonatal rats with capsaicin, ten day old rat pups received an infusion of 0.2 mls of 50 mg/ml capsaicin or 0.2 mls vehicle: 10% ethanol, 10% Tween 20, 80% saline or were left unmanipulated. Visceral sensitivity and inflammatory parameters were measured in these rats between 8 and 12 weeks of age. […] After 4 weeks, rats were tested for sensitivity to colorectal distention.
The abdominal withdrawal reflex represents a characteristic set of behaviors produced by involuntary motor reflexes that are activated by colorectal distention. Visceral hypersensitivity was measured by grading the response of rats to colorectal distention as previously described.^11 Briefly, under mild sedation with 1% Brevital (Eli Lily & Co Indianapolis, Ind.) 25 mg/kg i.p.), a flexible balloon (5 cm) constructed from a surgical glove finger attached to a tygon tubing was inserted 8 cm into the descending colon and rectum via the anus and held in place by taping the tubing to the tail. Rats were placed in small Lucite cubicles (20×8×8 cm) (Bioengineering Department, UTMB) and were allowed to adapt for 30 minutes. CRD was performed by rapidly inflating the balloon to constant pressure. Pressure was measured using a sphygmomanometer connected to a pressure transducer. […]

TRPV1 = tested on: TRPV1
Method: Tissues for western blot or RNA extraction were immediately frozen on dry ice and were stored at −80 until further analysis. Tissues were homogenized in extract buffer; 1% NP40, 10% glycerol, 20 mM Tris HCl […], 100 mM NaCl, 50 mM NaF, 2 mM EDTA, 1 mM EGTA, 25 mM b-glycerophosphate, 2 mM sodium pyrophosphate, 1 mM sodium orthovanadate, 1 mM phenylmethylsulfonyl fluoride and Protease Inhibitor Cocktail, 1/100 (Sigma). Proteins were resolved on 7.5% SDS-PAGE gels, transferred to PVDF membranes (BioRad), and incubated with an anti-TRPV1 antibody (PC420, Invitrogen) at 1/500. Bound antibodies were detected by ECL kit (Amersham Pharmacia Biotech, Piscataway, N.J.). The membranes were exposed to X-ray films and subsequently stripped and re-probed with a b-III-tubulin antibody (1/1000, Promega). Films were converted to TIFF image files using a HP scanner, and the TRPV1 and b-III-tubulin bands were quantified using OptiQuant software (Packard). Data was expressed as the ratio of TRPV1 to b-III-tubulin band intensity.
RNA was extracted from frozen DRG using Triozol (Invitrogen). Starting with […] of RNA, two-step quantitative RT-PCR was performed using Applied Biosystems reagents and kits. The following forward and reverse primer and probe sequences were used: TRPV1: […] (SEQ ID NO: 2), […] (SEQ ID NO: 3); b-III-tubulin: […] (SEQ ID NO: 4), […] (SEQ ID NO: 5), […] (SEQ ID NO: 6). TAQMAN PCR was performed on an Applied Biosystems 5700. Relative changes in TRPV1 mRNA levels were calculated by the DDCt method using b-III-tubulin as a normalizer. No RT reactions were performed as controls.
The lipid soluble fluorescent dye, DiI (1,1′-dioleyl-3,3,3′,3-tetramethylindocarbocyanine methanesulfonate, Invitrogen), 25 mg in 0.5 ml methanol, was injected in 2 μl volumes at 8-10 sites on the exposed colon from the level of the bladder to 6 cm oral. After one to two weeks, rats were perfused transcardially with 150 ml phosphate buffered saline (PBS) followed by 400 ml ice cold 4% paraformaldehyde in PBS. Dorsal root ganglia, T12 to S2 were removed and were post-fixed one hour in PFA and cryoprotected overnight in 20% sucrose in PBS. 10 micron sections on plus slides were incubated sequentially with TRPV1 antibody (PC420, Invitrogen, 1/200) and then with anti-rabbit Alexa Fluor 488 (Invitrogen, 1/200). Sections were viewed using a BX60 Olympus microscope equipped with filter cubes appropriate for DiI (Rhodamine filter) and appropriate band pass and barrier filter for Alexa-488. Images were captured and were analyzed using Metaview software. To ensure that a neuron is counted only once, serial sections were placed on consecutive slides with at least 50 microns between sections on the same slide.
To determine whether TRPV1 expression was altered in adult rats that were sensitized with acetic acid as neonates, TRPV1 expression in DRG containing colon afferents and in the spinal cord was measured.
TRPV1 and BDNF mRNA expression was measured in S1 DRG isolated from adult rats that were treated with acetic acid or saline as neonates by quantitative RT-PCR. […] To increase the sensitivity and specificity of this gene expression assay, measurements will be made in colon afferent neurons identified by uptake of the retrograde label fluorogold and isolated by laser capture microdissection (LCM) (FIG. 11).

colon DRG neurons = tested on: colon DRG neurons
Method: To determine whether the sensitivity of colon DRG neurons was altered in eight weeks old rats in this model, action potential threshold (rheobase) and firing frequency of acutely dissociated lumbar/sacral (LS), and thoracolumbar (TL) colon DRG neurons, identified by the presence of the retrograde label DiI, were measured in current clamp experiments.

MAPK = settings: pups one hour after infusion
Method: To determine whether acetic acid infusion of the colons of 10 days old pups activated MAPK in DRG containing soma of colon afferents, combined lumbar/sacral (LS) and thoracolumbar (TL) DRG from 4 pups/treatment group were assayed for p-p38 or ERK (p-p42/p-p44) content by western blot 1 hour after acetic acid infusion. Cervical (CE) DRG from the same animals were examined as an internal control for specificity of stimulation.

[1] = adult rats sensitized as neonates vs controls
[2] = quantitative RT-PCR, vs P10 saline

CC(=O)O [acetic acid]
EMG activity in response to graded colorectal distention (colon of P10 rats; adult, 40 and 60 mm Hg): significantly higher | AWR scores in response to colorectal distention (colon of P10 rats; tested at 8 weeks): higher mean AWR scores at all distention pressures | IFN-g in proximal colon, relative to saline (colon): 1.5 fold | MPO activity in proximal, middle and distal colon (colon): no significant increases in activity | MPO values in colon of pups (colon): not significantly different | histology of colon of pups (colon): No histological signs of inflammation or tissue destruction | histopathological examination of adult colon (colon): no evidence of inflammation or abnormalities in structure | levels of pro-inflammatory cytokines (IL-1b, IL-1a, IL-2, IL-6, TNF-a, IFN-g) (colon): no significant differences | mast cell counts, distal colon (colon): 9.3 SE 4.1 number of mast cells per high-powered field | mast cell counts, middle colon (colon): 7.7 SE 1.2 number of mast cells per high-powered field | mast cell counts, proximal colon (colon): 6.3 SE 3.4 number of mast cells per high-powered field | AWR grades in response to colorectal distention (colon of adult rats): No significant differences | TRPV1 protein expression in the spinal cord (TRPV1; adult rats sensitized as neonates): No change | TRPV1 mRNA in TL DRG (TRPV1; [1]): no change | TRPV1 mRNA increase in LS DRG (TRPV1; [1]): 1.9 fold | TRPV1 protein expression in whole DRG extracts (TRPV1; both TL and LS DRG, adult rats sensitized as neonates): significantly increased | colon DRG neurons (DiI) expressing TRPV1 immunoreactivity, LS DRG (TRPV1; control 38.8%): 54.0% | colon DRG neurons (DiI) expressing TRPV1 immunoreactivity, TL DRG (TRPV1; control 40.6%): 67.3% | BDNF mRNA expression increase in S1 DRG (TRPV1; [2]): 1.9 fold | TRPV1 mRNA expression increase in S1 DRG (TRPV1; [2]): 1.9 fold | average rheobase, TL colon DRG neurons (colon DRG neurons; 8 weeks old rats treated at P10, control 0.47): 0.29 nA | average rheobase, LS colon DRG neurons (colon DRG neurons; 8 weeks old rats treated at P10, control 0.56): 0.21 nA | number of action potentials elicited by current injection at 2x the rheobase, LS neurons (colon DRG neurons; control 1.2): 1.8 | p-p38 in TL or CE DRG (MAPK): No large changes | p-p42 in LS DRG (MAPK): no change | p-p44 in LS DRG (MAPK): seven-fold increase | p-ERK increase in TL DRG (MAPK; also seen with saline): 3-5 fold | p-p38 in LS DRG (MAPK; vs saline and unmanipulated): three-fold increase
